SMILES strings stand for the structures. A value given as a limit tells only on which side of the number the result lay.

What all share (assay type): in vitro ADME
Data set [1] relates to canine hepatocytes. The data set is described as follows: HMS CLint (liver) hepatocyte metabolic stability, dog. On the procedure:
(§1) Experimental purpose: to test the metabolic stability of the test sample in human and rat liver cells.
(§2) • (1) test compound (10 mM), reference substance: 7-ethoxycoumarin (30 mM), 7-hydroxycoumarin (reference substance, 30 mM); • mouse hepatocytes with cell viability of 73.8%, supplier Cat No.: BioreclamationlVTM005052; • rat hepatocytes with cell viability of 78.3%, supplier Cat No.: BioreclamationlVTM00005-T; • canine hepatocytes with cell viability of 80.2%, supplier Cat No.: BioreclamationlVTM00205; • monkey liver cells with cell viability of 80.9%, supplier Cat No.: RILD HP—SXH-02M; • human hepatocytes with cell viability of 94.6%, supplier Cat No.: Bioreclamation IVTX008001. • (2) Buffer system:
(§3) Thawing medium: Williams' medium E containing 5% fetal bovine serum, 30% Percoll solution, and other auxiliary materials.
(§4) Incubation medium: Williams' medium E (without phenol red) containing 2 mM L-glutamine and 25 mM 4-(2-hydroxyethyl)-1-piperazineethanesulfonic acid.
(§5) Termination solution: acetonitrile containing 200 ng/mL tolbutamide and labetalol as internal standard. […]
(§6) The residual rates of the test compound and the control compound were determined using the following formula: […]
(§7) The elimination rate constant (k) of the test compound and the control compound in hepatocytes was calculated by plotting the logarithm of the residual rate against time. […]

In data set [2] the test system is rat hepatocytes. The data set is described as follows: HMS CLint (liver) hepatocyte metabolic stability, rat. On the procedure: as §1, §2, §3, §4, §5, §6, §7
The target in data set [3] is CYP2C19 (Homo sapiens (Human), UniProt P33261). The data set can be described thus: Time-dependent inhibition (TDI) of CYP2C19 in human liver microsomes. The protocol: The time-dependent inhibitory effect of the test compound on the activity of human liver microsomal cytochrome P450 isoenzyme CYP2C19 was determined.
Sequence of CYP2C19 (P33261 whole entry): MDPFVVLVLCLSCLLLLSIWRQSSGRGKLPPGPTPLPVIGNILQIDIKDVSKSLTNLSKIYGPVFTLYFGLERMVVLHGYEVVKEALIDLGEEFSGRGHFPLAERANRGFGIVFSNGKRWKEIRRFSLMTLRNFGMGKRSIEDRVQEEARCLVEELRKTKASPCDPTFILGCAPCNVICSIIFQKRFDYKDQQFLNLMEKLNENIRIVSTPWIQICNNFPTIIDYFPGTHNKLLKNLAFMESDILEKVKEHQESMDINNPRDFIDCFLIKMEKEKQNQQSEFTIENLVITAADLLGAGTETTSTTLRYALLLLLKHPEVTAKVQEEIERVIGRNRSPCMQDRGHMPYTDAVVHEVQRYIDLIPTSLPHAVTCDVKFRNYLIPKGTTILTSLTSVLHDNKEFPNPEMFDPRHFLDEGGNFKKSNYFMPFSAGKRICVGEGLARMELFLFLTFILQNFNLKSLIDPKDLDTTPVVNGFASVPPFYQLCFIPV
The experiment was divided into two groups. In the first group, human liver microsomes (HLM) were used as the incubation system. The test articles with a series of concentrations were added to the incubation system, followed by the addition of a coenzyme factor (NADPH) solution. The preincubation was carried out at 37° C. for 30 minutes. After preincubation, a probe substrate solution was added thereto. After a certain period of incubation, the reaction was terminated. The amount of probe substrate metabolites generated in the incubation solution was determined, and the enzyme activity was calculated. In the second group, human liver microsomes (HLM) were used as the incubation system. The test articles with a series of concentrations were added to the incubation system, followed by the addition of potassium phosphate buffer. The preincubation was carried out at 37° C. for 30 minutes. After preincubation, a mixture of NADPH and the probe substrate was added thereto. After a certain period of incubation, the reaction was terminated. The amount of probe substrate metabolites generated in the incubation solution was determined, and the enzyme activity was calculated. […]
Then, 147.5 μL of human liver microsomal working solution was added to the reaction plate, and the reaction plate was placed on ice for use; at this time, 2.50 μL of the test compound (N=1) and the working solution (N=2) of the positive control inhibitor at various concentrations were added to the corresponding wells, and the corresponding organic solvent was added to the group without inhibitors (test compound or positive inhibitor); the reaction plate was incubated for 10 minutes at 37° C., and then 50.0 μL of NADPH solution or potassium phosphate buffer was added to reaction wells of the first or second group, respectively, to start the reaction; the reaction plate was pre-incubated at 37° C. for 30 minutes; 50.0 μL of the substrate solution or a mixture of NADPH and the substrate was added to the reaction wells of the first or second group, respectively, to start the reaction. 20 minutes later, 250 μL of precooled acetonitrile solution (containing internal standards of 200 ng/mL tolbutamide and labetalol) was added to terminate the reaction; the reaction plate was placed on a shaker and shaken for 10 minutes to mix uniformly; then, the plate was centrifuged for 20 minutes at 4° C. and 4000 rpm; 200 μL of the supernatant was added to 200 μL of water to dilute the sample; the plate was finally sealed and shaken for 10 minutes to mix uniformly; the sample was then analyzed by LC/MS/MS.
In general terms: Microsomes from liver hold many membrane-bound enzymes, among them those of drug oxidation.

The mark [4] stands for this setting: 30 min preincubation with NADPH.
Where [5] appears, read: 30 min preincubation without NADPH.

On to `C[C@]1(c2ccc(Cl)cn2)Oc2cccc(C3CCN(Cc4nc5sc(C(=O)O)cc5n4C[C@@H]4CCO4)CC3)c2O1` (single isomer, unassigned) [Compound 002], for which, in data set [1], the “HMS Dog” value was 115.4 mL/min/kg. The “HMS Rat” value in data set [2] stood at 138.7 mL/min/kg. Further, the IC50 (usually the point on the concentration scale where inhibition reaches its midpoint) in data set [3] (setting [4]) is 29.2 µM; in data set [3] (setting [5]), greater than 50 µM.

Consider `C[C@@]1(c2ccc(Cl)cn2)Oc2cccc(N3CCN(Cc4nc5sc(C(=O)O)cc5n4C[C@H]4CCO4)CC3)c2O1` [Compound 003], for which the “HMS Dog” value in data set [1] was 58.7 mL/min/kg. Further, the “HMS Rat” value in data set [2] is on record as 5.1 mL/min/kg. In addition, the IC50 in data set [3] (setting [4]) and in data set [3] (setting [5]) was greater than 50 µM throughout.

For the origin of these results see patent publication US20240368178A1, “IMIDAZOCYCLIC COMPOUND AND APPLICATION THEREOF” (DONGBAO PURPLE STAR (HANGZHOU) BIOPHARMACEUTICAL CO., LTD., priority 2021, published 2024).
